The source of these data is patent US20120100989A1, “3-Aryl-4-(2-thienylmethylene)isoxazol-5(4H)-ones as Fungicides” (Bayer CropScience AG, priority 2010, published 2012).

Each structure is given as a SMILES string.

One data set can be described thus: log P by HPLC on reversed-phase columns (C 18), EEC directive 79/831 Annex V.A8. Format: physicochemical. As to conditions: HPLC, acidic range pH 2.7, 0.1% aqueous formic acid and acetonitrile. As to the method: The log P values were measured according to EEC directive 79/831 Annex V.A8 by HPLC (High Performance Liquid Chromatography) on reversed-phase columns (C 18), using the method below:
The determination was carried out in the acidic range at pH 2.7 using the mobile phases 0.1% aqueous formic acid and acetonitrile; linear gradient from 10% acetonitrile to 95% acetonitrile.
Consider `Cc1ccc(C=C2C(=O)ON=C2c2ccccc2Cl)s1` [I-8], for which the “log P” value is listed as 3.23.

Still in this data set, the particulars now being: pH 2.7.
For the compound `Cc1ccc(C=C2C(=O)ON=C2c2cc(Br)ccc2Cl)s1` [I-131], the log partition coefficient (log P) was 4.02.

`O=C1ON=C(c2cc(Br)ccc2Br)C1=Cc1cccs1` [I-122]: the log partition coefficient (log P) is 3.88.

For `Cc1ccsc1C=C1C(=O)ON=C1c1ccccc1I` [I-107], the lipophilicity (log P) is on record as 3.56.

Take `COc1ccc(C2=NOC(=O)C2=Cc2cc(Br)c(Br)s2)cc1` [I-44]: the “log P” value came out at 4.45.

With `O=C1ON=C(c2cc(Cl)cc(Cl)c2)C1=Cc1cccs1` [I-34], the “log P” value was determined as 4.02.

Turning to `Cc1c(C=C2C(=O)ON=C2c2cc(F)ccc2Cl)sc2ccccc12` [I-146], the “log P” value was 4.32.

Turning to `Cc1ccc(C2=NOC(=O)C2=Cc2cc(-c3ccccc3)cs2)cc1` [I-69], the log partition coefficient (log P) is reported as 5.30.

Consider `Cc1ccsc1C=C1C(=O)ON=C1c1ccccc1` [U-29], for which the “log P” value is reported as 3.18.

In the case of `O=C1ON=C(c2ccccc2)C1=Cc1cc(Br)cs1` [U-36], the “log P” value is given as 3.71.

Turning to `Cc1ccc(C)c(C2=NOC(=O)C2=Cc2cccs2)c1` [I-98], the “log P” value is given as 3.62.

As for `Cc1ccc(/C=C2\C(=O)ON=C2c2ccccc2)s1` [U-42], the lipophilicity (log P) turned out to be 3.35.

Regarding `O=C1ON=C(c2ccccc2F)C1=Cc1ccc(Cl)s1` [I-106], the “log P” value was determined as 3.67.

As to `Cc1ccc(C2=NOC(=O)C2=Cc2ccc([N+](=O)[O-])s2)cc1` [U-18], the log partition coefficient (log P) turned out to be 3.62.

Turning to `COc1ccc(C2=NOC(=O)C2=Cc2cccs2)c(OC)c1` [U-28], the “log P” value was found to be 2.68.

Take `O=C1ON=C(c2ccccc2)C1=Cc1cc(Br)c(Br)s1` [I-111]: the lipophilicity (log P) amounted to 4.46.

Regarding `COc1ccc(C2=NOC(=O)C2=Cc2sccc2C)c(OC)c1` [U-27], the “log P” value was 2.81.

On to `O=C1ON=C(c2ccc(Cl)cc2)C1=Cc1cc(Br)c(Br)s1` [I-45], for which the “log P” value came to 4.88.

As for `COc1cccc(C2=NOC(=O)C2=Cc2ccc([N+](=O)[O-])s2)c1` [U-15], the lipophilicity (log P) worked out at 3.38.

With `CCOc1ccccc1C1=NOC(=O)C1=Cc1cc(-c2ccccc2)cs1` [I-112], the “log P” value was 4.44.

In the case of `O=C1ON=C(c2c(F)cccc2F)C1=Cc1cc(Br)cs1` [I-77], the “log P” value is 3.69.

For `CC(C)(C)c1ccc(C2=NOC(=O)C2=Cc2ccc([N+](=O)[O-])s2)cc1` [I-53], the “log P” value stood at 4.52.

Turning to `Cc1ccsc1C=C1C(=O)ON=C1c1ccc([N+](=O)[O-])cc1` [U-23], the log partition coefficient (log P) was found to be 3.18.

Take `COc1cccc(C2=NOC(=O)C2=Cc2sccc2C)c1` [U-13]: the “log P” value is 3.24.

`O=C1ON=C(c2ccc(F)cc2)C1=Cc1sccc1Br` [I-60]: the log partition coefficient (log P) was found to be 3.74.

With `O=C1ON=C(c2ccc(Cl)cc2)C1=Cc1ccc(Cl)s1` [I-46], the “log P” value was found to be 4.17.

Take `Cc1ccc(C=C2C(=O)ON=C2c2ccccc2)s1` [U-3]: the “log P” value was 3.27.

Regarding `Cc1ccc(C2=NOC(=O)C2=Cc2sccc2C)cc1` [U-8], the log partition coefficient (log P) was determined as 3.57.

With `Cc1ccsc1C=C1C(=O)ON=C1c1cc(F)ccc1Cl` [I-130], the lipophilicity (log P) came to 3.55.

Take `Cc1cc(C)cc(C2=NOC(=O)C2=Cc2cccs2)c1` [I-89]: the “log P” value was 3.78.

Regarding `CCOc1ccc(C2=NOC(=O)C2=Cc2sccc2C)cc1` [I-82], the log partition coefficient (log P) was found to be 3.61.

For `O=C1ON=C(c2ccc(-c3ccccc3)cc2)C1=Cc1cccs1` [I-66], the “log P” value worked out at 4.16.

As for `O=C1ON=C(c2cccc(F)c2)C1=Cc1ccc([N+](=O)[O-])s1` [I-101], the “log P” value stood at 3.41.

Turning to `O=C1ON=C(c2ccc(Cl)cc2)C1=Cc1cc(Br)cs1` [I-31], the “log P” value stood at 4.19.

With `Cc1ccsc1C=C1C(=O)ON=C1c1ccccc1[N+](=O)[O-]` [I-135], the lipophilicity (log P) turned out to be 2.85.

Take `O=C1ON=C(c2cccc(Cl)c2)C1=Cc1cccs1` [I-3]: the “log P” value was determined as 3.40.

`O=C1ON=C(c2ccccc2F)C1=Cc1cccs1` [I-22]: the lipophilicity (log P) was 2.95.

Regarding `O=C1ON=C(c2ccccc2OCc2ccccc2)C1=Cc1cccs1` [I-117], the “log P” value stood at 3.74.

Turning to `O=C1ON=C(c2ccc(F)cc2)C1=Cc1cc(-c2ccccc2)cs1` [I-67], the lipophilicity (log P) was determined as 4.27.

As for `CSCc1sc(C=C2C(=O)ON=C2c2ccccc2Cl)cc1Br` [I-13], the lipophilicity (log P) is listed as 4.29.

As for `O=C1ON=C(c2ccccc2Cl)C1=Cc1cc(Br)cs1` [I-11], the log partition coefficient (log P) turned out to be 3.92.

Regarding `O=C1ON=C(c2cc(F)ccc2Cl)C1=Cc1sccc1Cl` [I-136], the “log P” value was determined as 3.95.

For the compound `O=C1ON=C(c2cccc(Cl)c2Cl)C1=Cc1cccs1` [I-99], the lipophilicity (log P) is given as 3.62.

Regarding `O=C1ON=C(c2ccccc2[N+](=O)[O-])C1=Cc1cccs1` [I-120], the log partition coefficient (log P) was 2.69.

Consider `O=C1ON=C(c2ccc(F)cc2)C1=Cc1cc(Br)c(Br)s1` [I-63], for which the “log P” value amounted to 4.45.

Turning to `O=C1ON=C(c2ccccc2OCc2ccccc2)C1=Cc1ccc(Br)s1` [I-113], the “log P” value was 4.48.

Turning to `Cc1ccsc1C=C1C(=O)ON=C1c1cccc(F)c1` [I-102], the “log P” value is 3.31.

Regarding `CCOc1ccccc1C1=NOC(=O)C1=Cc1cccs1` [I-119], the “log P” value is given as 3.25.

In the case of `Cc1ccc(C2=NOC(=O)C2=Cc2ccc(Cl)s2)cc1` [I-42], the lipophilicity (log P) amounted to 4.05.

Take `Cc1c(C=C2C(=O)ON=C2c2ccc(F)cc2)sc2ccccc12` [I-143]: the log partition coefficient (log P) was found to be 4.18.

As for `COc1cccc(C2=NOC(=O)C2=Cc2ccc(Br)s2)c1` [I-68], the “log P” value is given as 3.79.

With `O=C1ON=C(c2ccc(F)cc2)C1=Cc1ccc([N+](=O)[O-])s1` [I-54], the log partition coefficient (log P) is given as 3.32.

With `O=C1ON=C(c2c(F)cccc2F)C1=Cc1cc(-c2ccccc2)cs1` [I-70], the lipophilicity (log P) is 4.16.

In the case of `Cc1sc(C=C2C(=O)ON=C2c2ccccc2Cl)cc1Br` [I-12], the “log P” value is 4.73.

`O=C1ON=C(c2ccc(F)cc2)C1=Cc1cccs1` [I-2]: the log partition coefficient (log P) turned out to be 3.01.

Regarding `Cc1ccc(C2=NOC(=O)C2=Cc2ccc(Br)s2)cc1` [I-48], the “log P” value stood at 4.12.

In the case of `Cc1ccsc1C=C1C(=O)ON=C1c1ccccc1Cl` [I-18], the lipophilicity (log P) worked out at 3.38.

For `COc1cccc(C2=NOC(=O)C2=Cc2cccs2)c1` [U-6], the lipophilicity (log P) is 2.90.

Take `CSc1ccsc1C=C1C(=O)ON=C1c1ccccc1Cl` [I-16]: the “log P” value is given as 3.59.

Take `Cc1ccccc1C1=NOC(=O)C1=Cc1cccs1` [I-23]: the “log P” value stood at 2.98.

As to `Cc1ccsc1C=C1C(=O)ON=C1c1ccc(C(C)(C)C)cc1` [I-28], the “log P” value was found to be 4.58.

On to `COc1ccc(C2=NOC(=O)C2=Cc2sccc2Br)cc1` [I-39], for which the “log P” value amounted to 3.65.

In the case of `O=C1ON=C(c2ccc(Cl)c(Cl)c2)C1=Cc1cccs1` [I-7], the log partition coefficient (log P) is 3.89.

As for `COc1ccc(C2=NOC(=O)C2=Cc2cc(-c3ccccc3)cs2)cc1` [I-62], the “log P” value is recorded as 4.23.

On to `Cc1c(C=C2C(=O)ON=C2c2ccccc2Cl)sc2ccccc12` [I-140], for which the “log P” value was determined as 4.31.

For the compound `O=C1ON=C(c2cc(F)ccc2F)C1=Cc1ccc(Cl)s1` [I-139], the “log P” value came to 3.84.

Turning to `Cc1cccc(C2=NOC(=O)C2=Cc2cccs2)c1` [I-80], the log partition coefficient (log P) came out at 3.36.

The same data set, now with this note: reversed-phase C18 HPLC column; preparation examples; HPLC, acidic range pH 2.7, formic acid; read-out: log P (HCOOH).
Consider `COc1cccc(C2=NOC(=O)C2)c1` [3-(3-methoxyphenyl)isoxazol-5(4H)-one], for which the chromatographic logP worked out at 4.03.

For orientation: log P means a log measure of how a compound divides between an organic and an aqueous phase. Lower therefore signals lower lipophilicity.
